Experimental data from PMC6556231 (Journal of medicinal chemistry, 2019).
“Also recorded” adds a separate entry of the source.

How the values were obtained:
[1] = Human liver microsomal Clint; assay type: in vitro ADME; conditions: for microsomal CLint: human, HLM Clint (μL/min/mg); for microsomal CLint / HLM Clint: human liver microsomes
[2] = Preliminary toxicity study in mice; assay type: in vivo; conditions: 100 mg/kg orally
[3] = system: Salmonella typhimurium strains; experiment: Ames fluctuation assay; assay type: cell-based; conditions: with and without rat liver S9 fraction
[4] = Chemical stability; assay type: physicochemical
[5] = Aqueous pH 7.4; assay type: physicochemical; conditions: 0.1 M phosphate buffer pH 7.4, 25 °C, 20-24 h
[6] = system: HepG2 cells; experiment: Drug toxicity to HepG2 cells; assay type: cell-based, human; conditions: 48 h, MTT
[7] = Human plasma protein binding; assay type: in vitro ADME; conditions: equilibrium dialysis, 18 h, 37 °C

Cc1cc2c(Nc3cnccn3)ccnc2cc1-c1cnc(N2CCN(C)CC2)nc1 [9a, 6-Methyl-7-(2-(4-methylpiperazin-1-yl)pyrimidin-5-yl)-N-(pyrazin-2-yl)quinolin-4-amine]
microsomal CLint [1]: 130 µL/min/mg

Cc1c(-c2cnc(N3CCN(C)CC3)nc2)ccc2c(Nc3cnccn3)ccnc12 [9b, 8-Methyl-7-(2-(4-methylpiperazin-1-yl)pyrimidin-5-yl)-N-(pyrazin-2-yl)quinolin-4-amine]
microsomal CLint [1]: 120 µL/min/mg

CN1C[C@@H]2C[C@H]1CN2c1ncc(-c2ccc3c(Nc4cnccn4)ccnc3c2)cn1 [10a, 7-(2-((1S,4S)-5-Methyl-2,5-diazabicyclo[2.2.1]heptan-2-yl)pyrimidin-5-yl)-N-(pyrazin-2-yl)quinolin-4-amine]
Increase in metabolic stability compared to 1 [1]: 4 fold

CN1C[C@H]2C[C@@H]1CN2c1ncc(-c2ccc3c(Nc4cnccn4)ccnc3c2)cn1 [10b, 7-(2-((1R,4R)-5-Methyl-2,5-diazabicyclo[2.2.1]heptan-2-yl)pyrimidin-5-yl)-N-(pyrazin-2-yl)quinolin-4-amine]
Increase in metabolic stability compared to 1 [1]: 4 fold

CN1CCN(Nc2ncc(-c3ccc4c(Nc5cnccn5)ccnc4c3)cn2)CC1 [16f, 7-(2-((4-Methylpiperazin-1-yl)amino)pyrimidin-5-yl)-N-(pyrazin-2-yl)quinolin-4-amine]
Increase in metabolic stability compared to 1 [1]: 10 fold | HLM Clint [1]: 16 µL/min/mg

CN1CCCN(c2ncc(-c3ccc4/c(=N/c5cnccn5)ccn(C)c4c3)cn2)CC1 [22a, (E)-1-Methyl-7-(2-(4-methyl-1,4-diazepan-1-yl)pyrimidin-5-yl)-N-(pyrazin-2-yl)quinolin-4(1H)-imine]
Adverse effects in preliminary toxicity study [2]: no adverse effects | Genotoxicity [3]: Neither 22a or its metabolites were found to be genotoxic; also recorded: neither it, nor its metabolites, are genotoxic | Hydrolytic stability ([4]; acidic and basic conditions): hydrolytic stability was confirmed under both acidic and basic conditions | Stability to hard and soft nucleophile ([4]; glutathione and cyanide): stable in the presence of both glutathione and cyanide | microsomal CLint [1]: 22 µL/min/mg

tert-Butyl methyl(2-((4-(4-(pyrazin-2-ylamino)quinolin-7-yl)phenyl)amino)ethyl)carbamate [6c]
Aq sol (μM) (thermodynamic solubility) [5]: 3.0 µM | HLM Clint [1]: >300 µL/min/mg | HepG2 TC50 [6]: 8.0 µM | Human PPB (%) [7]: 95%
